Test results reported in US20120082626A1, “USE OF R-BAMBUTEROL AS INHALED MEDICAMENT AND COMBINATION THERAPIES FOR TREATMENT OF RESPIRATORY DISORDERS” (priority 2009, published 2012).
“Also recorded” adds a separate entry of the source.

What was measured:
[1] = tested on: histamine evoked asthma in conscious guinea-pigs; experiment: Protection against histamine-evoked asthma by inhaled drug in conscious guinea pigs; type: in vivo, guinea pigs (Dunkin-Hartley strain); conditions: for Latency: no collapse over 360 sec recorded as 360
Procedure: Test methods: Guinea pigs (Dunkin-Hartley strain, 200±30 g) were fasted overnight but given water ad libidum. The animals were restrained individually in a glass chamber and exposed to aerosol histamine generated by a nebulizer from a 0.2% aqueous solution of histamine under constant pressure at dose of 0.5 ml/min for a period of 15 sec. The animal was removed from the chamber, and its behavior was monitored. Assign of collapse and the latency time from exposure to collapse were recorded. Only the animals with latency time less than 120 sec, as an indication of sensitive to histamine, were chosen for later experiments. The animals chosen were allowed to recover completely by resting for 24 hours before experiments. R-bambuterol and racemic bambuterol hydrochloride were dissolved in saline and nublized in a nebulizer.
Study of dose-response: One hours before the exposure to aerosol histamine, animals were randomized into groups (n=8, equal sex), and Nublized R-bambuterol hydrochloride or bambuterol hydrochloride in doses of 63, 126, 252 and 504 μg/kg, and vehicle control were inhaled by the animals via a mouth and nasal mask. The numbers of collapsed animal as a result of asthmatic reaction to aerosol histamine were counted, and the latency times were recorded. Both of these parameters were used as quantitative measurements of the protective effects of the treatments on bronchospasm evoked by aerosol histamine.

[2] = tested on: histamine evoked asthma in conscious guinea-pigs; experiment: Time course of anti-asthma effects after oral administration or inhalation; type: in vivo; conditions: for No. of collapsed: n=8
Procedure: The time course of the anti-asthma effects of R-bambuterol (R-BM) and bambuterol (RS-BM) after administered by oral and by inhalation. Test Methods: same as example 1 except the following:
For orally administration, R-Bambuterol hydrochloride or racemic bambuterol hydrochloride at 4 and 8 mg/kg, and vehicle alone, were administered to the guinea pigs orally via a stomach tube. Exposure of treated animals to aerosol histamine (as above) was done at 1, 4 and 12 hours after R-bambuterol or bambuterol treatment. For each experimental group, there were a total of 8 animals with equal number in sex, and no repeated exposure was made for individual experimental animals.
For inhalation, R-Bambuterol hydrochloride or racemic bambuterol hydrochloride at 0.252 and 0.504 mg/kg, and vehicle alone, were nebulized and administered to the guinea pigs by inhalation. Exposure of drug treated animals to aerosol histamine (as above) was done at 1,4 and 12 hours after drug treatment. For each experimental group, there were a total of 8 animals with equal number in sex, and no repeated exposure was made for individual experimental animals.

[3] = tested on: OVA evoked asthma in sensitized guinea pigs; experiment: Airway resistance and dynamic pulmonary compliance after inhalation in OVA sensitized guinea pigs; type: in vivo; conditions: for change of Raw and Cdyn at resting state after inhalation: before OVA challenge; for protection against asthma attack by antigen (OVA) challenge: pretreatment by inhalation about three minutes before OVA challenge
Procedure: Sensitization of animals: Ovalbumin (10 μg/ml) was injected into guinea-pigs subcutaneously and coincidentally with an intraperitoneal injection of B. pertussis vaccine. Identical injection of ovalbumin and adjuvant were made day 15 and 21 days later. On day 28th the animals were examined and used for studies.
Test Methods: The sensitized guinea pigs wer anaethetized. A cannula was inserted into the trachea. A plueral cannula was inserted into pleural space through the chest wall. Airway resistance (Raw) and dynamic pulmonary compliance (Cdyn) were measured by using the signals of intraplueral pressure, airflow and tidal volume.
The animals were restreined in closed chamber and nebulized R-bambuterol or S-bambuterol were inhaled at the dose of 126 μg/kg. After three minutes conditioning, the animals were then challenged with nebulized OVA to evoke asthma. Airway resistance (Raw) and dynamic pulmonary compliance (Cdyn) were measured before and after evoking asthma.

[4] = tested on: OVA evoked asthma in sensitized guinea pigs; experiment: Airway resistance in OVA asthma attack after oral administration in sensitized guinea pigs; type: in vivo
Procedure: Sensitized animals were divided into Saline (control), S-Bambuterol and R-bambuterol groups. R or S bambuterol were administered by both inhalation by oral ([…]). Airway resistance (Raw) and dynamic pulmonary compliance (Cdyn) were measured at resting or during astham challenge by OVA. Animal preparation and experimental methods were similar as described previously.

[5] = tested on: OVA evoked asthma in sensitized guinea pigs; experiment: Drug tolerance to R-bambuterol induced by pretreatment; type: in vivo; conditions: for Changes in Cdyn During asthma / Changes in Raw During asthma: OVA challenge, n=8
Procedure: Animal sensitization and experiment methods were similar as discribed above. Briefly, animals were divided into three groups. R-bambuterol (8 mg/kg) or S-bamburerol (8 mg/kg) or 0.9% NaCL (control) were given orally in equal volum to each group seperatedly once a day for 7 consecutive days in order to induce drug tolerances. The Protection effects of same dosage of R-bambuterol against asthma attack induced by OVA challenge were evaluated by the changes of Airway resistance (Raw) and dynamic pulmonary compliance (Cdyn).

[6] = tested on: OVA evoked asthma in sensitized guinea-pigs; experiment: Relief of antigen-evoked asthma by inhalation after challenge in OVA sensitized guinea-pigs; type: in vivo; conditions: nebulized drug inhaled after antigen challenge
Description: In an embodiment of the invention, the ovalbumin (OVA) sensitized guinea-pigs were first challenged with nebulized antigen to evoke asthma, then the animals were allowed to inhale nebulized R-bambuterol or bambuterol. […] In a further embodiment of the invention, the sensitized guinea-pigs were first pretreated with nebulized R-bambuterol or bambuterol by inhalation. After three minutes, the same animals were challenged with nebulized antigen. […] The fast onset of action in the invention can also not be explained by Svenssion's in vitro metabolic study noted above that the dominate product is mono-carbamate bambuterol and litter terbutaline at initial phase., while the major amount of terbutaline will be formed at much later phase. (Svensson et al., 1988).

[7] = tested on: OVA evoked asthma in sensitized guinea pigs; experiment: Airway resistance and dynamic pulmonary compliance after inhalation in OVA sensitized guinea pigs; type: in vivo; conditions: n=8
[8] = oral; cited from earlier work
[9] = inhale, at maximum effective dose (R-BM 0.252, RS-BM 0.505 mg/Kg)
[10] = inhalation (R-BM 252 μg/kg, RS-BM 504 μg/kg), histamine 60 min after
[11] = inhalation (R-BM 252 μg/kg, RS-BM 504 μg/kg), histamine 240 min after
[12] = inhalation (R-BM 252 μg/kg, RS-BM 504 μg/kg), histamine 720 min after
[13] = oral (R-BM 4.0 mg/kg, RS-BM 8.0 mg/kg), histamine 60 min after
[14] = oral (R-BM 4.0 mg/kg, RS-BM 8.0 mg/kg), histamine 240 min after
[15] = oral (R-BM 4.0 mg/kg, RS-BM 8.0 mg/kg), histamine 720 min after
[16] = pretreated with the labelled substance 8 mg/kg orally once a day 7 days, then R-bambuterol
[17] = saline pretreated group, protection by R-bambuterol
[18] = R-BM inhaled 504 μg/kg, OVA challenge
[19] = after R-BM inhaled 504 μg/kg, before OVA challenge

Structure (SMILES): CN(C)C(=O)Oc1cc(OC(=O)N(C)C)cc([C@@H](O)CNC(C)(C)C)c1 [R-bambuterol]
- dosage required for maximum anti-asthmatic effects (complete protection against histamine) by inhalation ([1]; inhalation): 256 µg/kg
- maximum effective dose required by inhalation ([1]; inhale): Inhale (0.252) mg/Kg
- Animal collapsed (%) [1, 9]: 0%
- Animal collapsed (number/group) [1, 9]: 0/8
- Latency ([1]; inhaled 63 μg/Kg): 95 ± 108 s
- Latency ([1]; inhaled 126 μg/Kg): 243 ± 161 s
- Latency ([1]; inhaled 252 μg/Kg): 360 ± 0 s
- Latency ([1]; inhaled 504 μg/Kg): 360 ± 0 s
- potency relative to bambuterol ([1]; inhaled aerosols, histamine evoked asthma): about twice
- Oral:Inhale ratio of maximum effective dose ([1]; oral dose vs inhaled dose for maximum anti-asthmatic effect, listed as R-bamubuterol): 16
- Latency [2, 10]: 360 ± 0 s
- No. of collapsed [2, 10]: 0/8
- Latency [2, 11]: 360 ± 0 s
- No. of collapsed [2, 11]: 0/8
- Latency [2, 12]: 330 ± 84 s
- No. of collapsed [2, 12]: 1/8
- maximum anti-asthmatic effects by inhalation faster than by oral administration ([2]; inhalation vs oral): 4 h
- Latency [2, 13]: 258 ± 141 s
- No. of collapsed [2, 13]: 3/8
- Latency [2, 14]: 360 ± 0 s
- No. of collapsed [2, 14]: 0/8
- Latency [2, 15]: 285 ± 129 s
- No. of collapsed [2, 15]: 2/8
- change of Raw and Cdyn at resting state after inhalation [3]: reduced airway resistance and enhanced pulmonary dynamic compliance
- change of Raw and Cdyn at resting state after inhalation ([3]; listed as R-Bambuterol): no significant changes both in Raw and Cdyn
- protection against asthma attack by antigen (OVA) challenge [3]: significant anti-asthma effects; also recorded: fully protection against the asthma attack
- protection against asthma attack by antigen (OVA) challenge ([3]; listed as R-BM): full protection
- change in Raw / asthmatic response during the asthmatic attack by OVA ([4]; oral): little changes in Raw
- Changes in Airway resistance (Raw) at 4th min after OVA challenge ([4]; pretreated oral 4 m/kg, n=8): 0.14 ± 0.13
- Changes in Airway resistance (Raw) at 5th min after OVA challenge ([4]; pretreated oral 4 m/kg, n=8): 0.11 ± 0.08
- protection effects of R-bambuterol against asthmatic attack after pretreatment ([5]; group pretreated with the labelled substance): less than control but no significant differences
- Changes in Cdyn During asthma [5, 16]: −0.11 ± 0.08
- Changes in Raw During asthma [5, 16]: +0.13 ± 0.09
- protection against asthma attack in control group ([5]; saline pretreated control group): fully protect against asthma attack
- Changes in Cdyn During asthma [5, 17]: −0.08 ± 0.06^•
- Changes in Raw During asthma [5, 17]: +0.09 ± 0.03^•
- relief of asthmatic symptoms after inhalation [6]: immediately relieved within matter of tenths of seconds to a couple of minutes
- Cdyn (dynamic pulmonary compliance) [7, 18]: 0.62 ± 0.02
- Raw (airway resistance) [7, 18]: 11.51 ± 1.09
- Cdyn (dynamic pulmonary compliance) [7, 19]: 0.70 ± 0.03
- Raw (airway resistance) [7, 19]: 10.91 ± 0.41
- time of maximum concentration (tmax) [8]: around one
